Reference: US8883410B2, “Method for determining the stability of organic methyleneamines in the presence of semicarbazide-sensitive amine oxidase” (Sanofi, priority 2007, dated 2014)

Columns and labels:
Type in all cases: in vitro ADME
[1] = target: T1, human SSAO T1 (Gly27-Asn763), C-terminal 6xHIS tag (Homo sapiens, UniProt Q16853); experiment: Benzylamine stability in lysate of cells expressing T1 SSAO with C-terminal 6xHIS tag, LC/MS/MS
T1 construct: T1 (Gly27-Asn763) Representing the Enzyme Lacking the Membrane Anchoring Region; additional N-terminal Met (N); expressed in transfected cells; cell lysate
T1 sequence (Q16853 27-763): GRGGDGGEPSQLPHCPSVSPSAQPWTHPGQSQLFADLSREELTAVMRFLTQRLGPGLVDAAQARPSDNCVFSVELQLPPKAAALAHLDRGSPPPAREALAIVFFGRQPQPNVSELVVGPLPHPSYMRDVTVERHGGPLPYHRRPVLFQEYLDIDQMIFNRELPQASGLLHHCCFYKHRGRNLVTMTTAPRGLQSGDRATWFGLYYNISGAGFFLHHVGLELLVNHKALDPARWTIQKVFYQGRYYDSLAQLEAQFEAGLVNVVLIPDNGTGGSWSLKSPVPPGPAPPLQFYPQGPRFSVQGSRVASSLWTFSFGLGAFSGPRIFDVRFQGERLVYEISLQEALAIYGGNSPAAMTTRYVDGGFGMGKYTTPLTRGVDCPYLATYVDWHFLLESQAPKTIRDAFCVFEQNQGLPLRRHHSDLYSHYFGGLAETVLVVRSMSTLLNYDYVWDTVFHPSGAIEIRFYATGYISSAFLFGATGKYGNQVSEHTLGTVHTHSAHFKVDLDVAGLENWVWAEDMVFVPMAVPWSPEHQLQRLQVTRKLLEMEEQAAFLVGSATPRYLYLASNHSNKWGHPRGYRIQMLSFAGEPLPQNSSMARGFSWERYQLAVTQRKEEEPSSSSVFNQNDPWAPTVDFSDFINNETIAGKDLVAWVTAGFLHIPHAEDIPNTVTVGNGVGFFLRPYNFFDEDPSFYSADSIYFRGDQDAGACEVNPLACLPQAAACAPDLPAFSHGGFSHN
Protocol: (§1) 3) T1 (Gly27-Asn763) Representing the Enzyme Lacking the Membrane Anchoring Region:
(§2) The expression constructs were prepared by cloning these PCR products into the pCDNA5-FRT-To-DEST vector (Invitrogen, Gateway System™). The forward and reverse DNA sequence of each construct was confirmed including expressed sequences and at least 100 base pairs either side of this. Stable cell lines for Flp-In CHO, Flp-In CHO T-Rex, and Flp-In HEK 293 (Invitrogen, Flp-In system™) were generated using these 6 constructs according to manufacturer's instructions. Cells were co-transfected with the regulatory vector, pOG44, and each of the pCDNA5-FRT-To-DEST constructs using Lipfectamine (Invitrogen) according to manufacturer's instructions. Thus, 18 cell lines were generated: CHO Flp-In full-length SSAO; CHO Flp-In full-length SSAO with C-terminal 6×HIS tag; CHO Flp-In T1 SSAO; CHO Flp-In T1 SSAO with C-terminal 6×HIS tag; CHO Flp-In T2 SSAO; CHO Flp-In T2 SSAO with C-terminal 6×HIS tag; CHO T-Rex Flp-In full-length SSAO; CHO T-Rex Flp-In full-length SSAO with C-terminal 6×HIS tag; CHO T-Rex Flp-In T1 SSAO; CHO T-Rex Flp-In T1 SSAO with C-terminal 6×HIS tag; CHO T-Rex Flp-In T2 SSAO; CHO Flp-In T2 SSAO with C-terminal 6×HIS tag; HEK 293 Flp-In full-length SSAO; HEK 293 Flp-In full-length SSAO with C-terminal 6×HIS tag; HEK 293 Flp-In T1 SSAO; HEK 293 Flp-In T1 SSAO with C-terminal 6×HIS tag; HEK 293 Flp-In T2 SSAO; HEK 293 Flp-In T2 SSAO with C-terminal 6×HIS tag.
(§3) Adherent CHO cells were cultured at 37° C., 5% CO2 in media containing Ham's F12, 10% fetal bovine serum, 2 mM L-glutamine, 1% Penicillin/Streptomycin, 300 μM hygromycin B. Adherent HEK 293 cells were cultured at 37° C., 5% CO2 in D-MEM (high glucose), 10% fetal bovine serum, 2 mM L-glutamine, and 200 μM hygromycin B. Stable transformants were identified by loss of zeocin resistance. Once the cells were 80% confluent, SSAO expression was induced by the addition of Tetracycline to 1 μg/mL. Following 18 hours, the cells were harvested using a trypsin treatment of 3 minutes, at room temperature. Cells were washed 3 times in phosphate buffered saline before flash freezing in liquid nitrogen.
(§4) For the preparation of cell lysate for activity testing, frozen cell pellets were resuspended in lysate buffer containing 10 mM Tris-HCl (pH 7.2), 150 mM NaCl, 1.5 mM MgCl2, 1% v/v NP-40 and incubated for 15 minutes on ice. Lysate was cleared by centrifugation 800×g for 10 minutes, 4° C. and stored in aliquots at −80° C. until use. Proteins were determined using Pierce Coomassie Protein Reagent, according to manufacturer's instructions.
(§5) For each assay run, 1 mL of cell lysate (1.5 mg/mL protein) was mixed with benzylamine to 2000 ng/mL final concentration. At each corresponding time point, […] the incubation mixture was transferred to a microcentrifuge tube (1.7 mL) and mixed with 50 μL of acetonitrile. The tubes were vortex mixed briefly to ensure complete mixing and then centrifuged at 10,000×g for 5 minutes. The supernatant was removed and 50 μL was transferred to an autosampler vial and mixed with 50 μL of water before LC/MS/MS analysis. Benzylamine remaining in the lysate was analyzed with LC/MS/MS method.
(§6) LC/MS/MS analysis was performed with a PE Sciex API 3000 mass spectrometer under the following conditions listed below and in Tables 1 and 2: […]

[2] = Benzylamine stability in control cell lysate (no SSAO expressed), LC/MS/MS; settings: tag None
Protocol: as §3, §4, §5, §6

[3] = target: T2, human SSAO T1 (Gly27-Asn763), untagged (Homo sapiens, UniProt Q16853); experiment: Benzylamine stability in lysate of cells expressing T1 SSAO (untagged), LC/MS/MS
T2 construct: T1 (Gly27-Asn763) Representing the Enzyme Lacking the Membrane Anchoring Region; additional N-terminal Met (N); expressed in transfected cells; cell lysate
T2 sequence (Q16853 27-763): T1 sequence (Q16853 27-763)
Protocol: as §1, §2, §3, §4, §5, §6

For `NCc1ccccc1` [Benzylamine], the “Benzylamine Remaining (%)” value ([1]; CHO Flp-In T-Rex lysate, 0 min) was 100%, the “Benzylamine Remaining (%)” value ([1]; CHO Flp-In T-Rex lysate, 10 min) was 95% and the “Benzylamine Remaining (%)” value ([1]; CHO Flp-In T-Rex lysate, 2 h) was 93%. The “Benzylamine Remaining (%)” value ([1]; CHO Flp-In lysate, 0 min) was 100%, the “Benzylamine Remaining (%)” value ([1]; CHO Flp-In lysate, 10 min) was 101% and the “Benzylamine Remaining (%)” value ([1]; CHO Flp-In lysate, 2 h) was 98%. For the same compound, the “Benzylamine Remaining (%)” value ([1]; HEK293 lysate, 0 min) was 100%, the “Benzylamine Remaining (%)” value ([1]; HEK293 lysate, 10 min) was 111% and the “Benzylamine Remaining (%)” value ([1]; HEK293 lysate, 2 h) was 103%. The “Benzylamine Remaining (%)” value ([2]; CHO Flp-In T-Rex lysate, SSAO None, 0 min) was 100%, the “Benzylamine Remaining (%)” value ([2]; CHO Flp-In T-Rex lysate, SSAO None, 10 min) was 104% and the “Benzylamine Remaining (%)” value ([2]; CHO Flp-In T-Rex lysate, SSAO None, 2 h) was 99%. For the same compound, the “Benzylamine Remaining (%)” value ([2]; Control CHO Flp-In lysate, SSAO none, 0 min) was 100%, the “Benzylamine Remaining (%)” value ([2]; Control CHO Flp-In lysate, SSAO none, 10 min) was 104% and the “Benzylamine Remaining (%)” value ([2]; Control CHO Flp-In lysate, SSAO none, 2 h) was 99%. For the same compound, the “Benzylamine Remaining (%)” value ([2]; Control CHO lysate, SSAO none, 0 min) was 100%, the “Benzylamine Remaining (%)” value ([2]; Control CHO lysate, SSAO none, 10 min) was 111% and the “Benzylamine Remaining (%)” value ([2]; Control CHO lysate, SSAO none, 2 h) was 110%. The “Benzylamine Remaining (%)” value ([2]; HEK293 control lysate, SSAO none, 0 min) was 100%, the “Benzylamine Remaining (%)” value ([2]; HEK293 control lysate, SSAO none, 10 min) was 106% and the “Benzylamine Remaining (%)” value ([2]; HEK293 control lysate, SSAO none, 2 h) was 123%. The “Benzylamine Remaining (%)” value ([3]; CHO Flp-In T-Rex lysate, tag One, 0 min) was 100%, the “Benzylamine Remaining (%)” value ([3]; CHO Flp-In T-Rex lysate, tag One, 10 min) was 104% and the “Benzylamine Remaining (%)” value ([3]; CHO Flp-In T-Rex lysate, tag One, 2 h) was 92%. The “Benzylamine Remaining (%)” value ([3]; CHO Flp-In lysate, tag None, 0 min) was 100%, the “Benzylamine Remaining (%)” value ([3]; CHO Flp-In lysate, tag None, 10 min) was 109% and the “Benzylamine Remaining (%)” value ([3]; CHO Flp-In lysate, tag None, 2 h) was 103%. For the same compound, the “Benzylamine Remaining (%)” value ([3]; HEK293 lysate, tag None, 0 min) was 100%, the “Benzylamine Remaining (%)” value ([3]; HEK293 lysate, tag None, 10 min) was 105% and the “Benzylamine Remaining (%)” value ([3]; HEK293 lysate, tag None, 2 h) was 102%.
